Results taken from US11584744B2 (UNIVERSITY OF WASHINGTON, priority 2017, dated 2023).
Read-outs that look alike come from different tables or passages of the source.

Experiments:
E. coli (ATCC 25922) = assay: MIC susceptibility testing; assay type: cell-based; settings: Escherichia coli, ATCC25922
Summary of the method: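 CLSI broth microdilution with two-fold compound dilutions, in triplicate; cells added in medium at 1×10^6 CFUs/mL, DMSO ≤0.5%. Media: MHB for S. aureus, CA-MHB for E. coli and E. faecium, CA-MHB plus 3% laked horse blood for S. pyogenes (5% CO2).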

[1] = test system: P. aeruginosa (ATCC 27853); assay: MIC susceptibility testing; assay type: cell-based; settings: Pseudomonas aeruginosa, ATCC27853
[2] = mice infected with T. brucei, 50 mg/kg PO twice-per-day for 10 days; previous publication; cited from earlier work
[3] = test system: E. coli MB4827 (wild-type); assay: MIC against permeability strains of E. coli; assay type: cell-based; settings: Escherichia coli, read-out: MIC MB4827 (wild-type)
Experimental: (§1) Bacterial strains. Strains with ATCC designations were either obtained directly from the American Type Culture Collection (Manassas, Va.) or were kindly provided by the University of Washington Clinical Microbiology laboratory. Escherichia coli permeability mutants (properties shown in Table 1) were provided as a gift from Dr. Katherine Young at Merck (Rahway, N.J.).
(§2) Susceptibility testing: Minimum inhibitory concentration (MIC) determinations were performed in triplicate in 96-well round bottom microtiter plates (Corning, Corning N.Y.) as described by the Clinical and Laboratory Standards Institute (CLSI). Serial two-fold dilutions of compounds were added to plates in 50 μL volumes. An additional 50 μL of media containing bacterial cells (1×10^6 CFUs/mL) was then added to each well. Maximum DMSO concentrations were 0.5%. Plates were incubated at 37° C. for at least 18 h before reading the susceptibility result by optical absorbance (OD600) using a BioTek ELx800. The lowest concentration causing ≥90% growth inhibition compared to the untreated control was recorded as the MIC (and also corresponded to the visual MIC). MICs were measured at least twice and the higher value (if different) was recorded herein.

E. coli MB4902 (lpxC) = assay: microbe, parasite or virus in culture; assay type: cell-based; settings: Escherichia coli, read-out: MIC MB4902 (lpxC)
Experimental: as §1, §2

[4] = test system: E. coli MB5746 (lpxC, tolC); assay: microbe, parasite or virus in culture; assay type: cell-based; settings: Escherichia coli, read-out: MIC MB5746 (lpxC, tolC)
Experimental: as §1, §2

E. coli MB5747 (tolC) = assay: microbe, parasite or virus in culture; assay type: cell-based; settings: Escherichia coli, read-out: MIC MB5747 (tolC)
Experimental: as §1, §2

[5] = Murine pharmacokinetics studies (oral, dried blood spots); assay type: in vivo, mice; settings: 50 mg/kg single oral dose; for Cmax / AUC(0-t): mouse, whole blood (dried blood spots); for Cmax: po, 50 mg/kg, read-out: Mouse Oral PK DBS: Average Cmax; for AUC(0-t): read-out: Mouse Oral PK DBS: Average AUC(0-24 h) (converted)
Experimental: Murine pharmacokinetics studies. The methods were performed as previously described. Briefly, test compounds were administered to mice by oral gavage (3 mice per compound) followed by tail blood sampling at intervals of 30, 60, 120, 240, 360, 480, and 1440 min. Blood samples were analyzed by extracting dried blood spots in acetonitrile for measurements of compound concentrations by liquid chromatography/tandem mass spectrometry.
Pharmacokinetics studies: Selected compounds were administered to mice in single oral doses at 50 mg/kg and tail blood was sampled at time intervals out to 24 h to assess blood exposure (Table 9).

S. aureus (ATCC 29213) = assay: Macromolecular synthesis assays (radiolabeled precursor incorporation); assay type: cell-based, Staphylococcus aureus; settings: 30 minute incubations
Experimental: Macromolecular synthesis assays: Methods for measuring uptake of radiolabeled precursors by S. aureus (ATCC strain 29213) were adapted from previous publications. For these assays, bacteria were grown in defined media (DM): RPMI-1640 pH 7.3±0.1 without phenol red or L-glutamine (Lonza, Basel, Switzerland) supplemented with 4 mM L-glutamine (Lonza, Basel, Switzerland), 10 mM HEPES (Lonza, Basel, Switzerland), and 1% (w/v) D-glucose (Sigma Aldrich, St. Louis, Mo.). Fresh overnight cultures grown in DM at 37° C. were diluted 1:50 in pre-warmed DM and grown at 37° C. with shaking (150 rpm) until reaching an OD600 of 0.420 correlating to ˜1*10^9 CFUs/mL in mid-log phase. Each compound was assayed in quadruplicate with an 11-point three-fold serial dilution per radioisotope. A pre-warmed 96-well V-bottom plate (Corning 3894; Corning, Corning, Mass.) containing 25 μL of 4× final concentration of test compound was inoculated with 65 μL of mid-log phase bacteria (OD600 of 0.420). Both positive and negative control wells received 25 μL untreated DM and 65 μL of inoculum at the same time. After one minute, 10 μL of radiolabeled precursor (10× final concentration in DM) was added to samples and positive control wells. Final isotope concentrations for assay of [3H]-lysine (protein), [3H]-thymidine (DNA), and [3H]-uridine (RNA) were 10 μCi/mL, 2 μCi/mL, and 2 μCi/mL respectively. […] After termination, 10 μL of 10× radiolabeled precursor was added to negative control wells. The negative control consisted of adding radiolabeled precursors after termination of the bacterial incubation in order to represent background measurement of the isotope. Plates were sealed with plate tape (Thermo Fischer Scientific, Waltham, Mass.) and shaken at 250 rpm for one hour at room temperature. Aliquots of 125 μL were transferred from the 96-well V-bottom plates to 96-well filter plates (Merck Millipore, Billerica, Mass.). To bind macromolecules, the samples were passed through the filter membrane (0.45 μM hydrophilic Durapore PVDF membrane) with a vacuum manifold, then the filter was washed with 4×200 μL 10% TCA and 1×150 μL of 95% ethanol, and dried overnight in vacuum at room temperature. 25 μL Ultima Gold scintillation fluid (Perkin Elmer, Waltham, Mass.) was added to each well and DPM was quantified using a MicroBeta^2-2450 (Perkin Elmer, Waltham, Mass.) scintillation counter. The percent incorporation was determined by subtracting each well by the average negative background and dividing by the average positive incorporation×100. Error bars represent SEM between replicates. The assay was run twice with similar results.

MetRS (C. parvum) = MetRS (C. parvum) (Cryptosporidium parvum, UniProt Q5CVN0); assay: MetRS (C. parvum) enzyme inhibition; assay type: biochemical; settings: read-out: (C) MetRS (C. parvum) IC50
C. parvum = C. parvum growth inhibition; assay type: cell-based, Cryptosporidium parvum; settings: read-out: (J) C. parvum EC50

Chain of MetRS (C. parvum) (Q5CVN0 entry or part of it): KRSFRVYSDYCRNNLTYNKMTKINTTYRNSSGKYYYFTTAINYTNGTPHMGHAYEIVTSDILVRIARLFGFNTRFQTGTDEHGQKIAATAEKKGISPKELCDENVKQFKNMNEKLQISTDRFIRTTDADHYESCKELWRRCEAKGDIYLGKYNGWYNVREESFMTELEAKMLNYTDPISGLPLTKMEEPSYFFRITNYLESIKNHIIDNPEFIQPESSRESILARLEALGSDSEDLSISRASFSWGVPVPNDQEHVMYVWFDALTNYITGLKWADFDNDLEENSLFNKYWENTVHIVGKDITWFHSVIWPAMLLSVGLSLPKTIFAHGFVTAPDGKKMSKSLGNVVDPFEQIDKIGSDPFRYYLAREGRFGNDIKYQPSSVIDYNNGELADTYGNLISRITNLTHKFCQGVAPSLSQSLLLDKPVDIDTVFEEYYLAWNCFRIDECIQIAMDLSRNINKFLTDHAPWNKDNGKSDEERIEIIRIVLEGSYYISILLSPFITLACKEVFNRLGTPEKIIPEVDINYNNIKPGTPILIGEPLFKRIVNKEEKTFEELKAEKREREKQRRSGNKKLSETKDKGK

Row | SMILES | MIC (E. coli (ATCC 25922)) [µg/mL] | MIC [1] [µg/mL] | effects on weight, grooming, or body condition [2] | MIC [3] [µg/mL] | MIC (E. coli MB4902 (lpxC)) [µg/mL] | MIC [4] [µg/mL] | MIC (E. coli MB5747 (tolC)) [µg/mL] | Cmax [5] [ng/mL] | AUC(0-t) [5] [ng·h/mL] | Incorporation of 3H-Lysine (protein synthesis) (S. aureus (ATCC 29213)) | IC50 (MetRS (C. parvum)) [µM] | EC50 (C. parvum; Cryptosporidium parvum) [µM] | EC50 (C. parvum) [µM] | Mouse Oral PK DBS: Average Cmax [5] [ng/mL]
1 | Fc1ccc2nc(NCCCNCc3cc(Cl)cc(Cl)c3)[nH]c2n1 [Compound 1614, [(3,5-dichlorophenyl)methyl][3-({5-fluoro-3H-imidazo[4,5-b]pyridin-2-yl}amino)propyl]amine] | > 10 | > 10 | no deleterious effects on weight, grooming, or body condition |  |  |  |  |  |  |  |  |  |  | 
2 | Fc1ccc2nc(NCCCN[C@@H]3CCNc4c(Cl)cc(Cl)cc43)[nH]c2n1 [Compound 1717, (4R)-6,8-dichloro—N-[3-({5-fluoro-3H-imidazo[4,5-b]pyridin-2-yl}amino)propyl]-1,2,3,4-tetrahydroquinolin-4-amine, reference compound] | > 10 | > 10 | no deleterious effects on weight, grooming, or body condition | > 20 | > 20 | > 20 | > 20 | ~1500 | 15700 | profoundly inhibited |  |  |  | 
3 | CCn1c(Cc2ccc(Cl)cc2Cl)cn(Cc2nc3nc(F)ccc3[nH]2)c1=O [Compound 2062, 4-[(2,4-dichlorophenyl)methyl]-3-ethyl-1-({5-fluoro-1H-imidazo[4,5-b]pyridin-2-yl}methyl)-2,3-dihydro-1H-imidazol-2-one] |  |  |  |  |  |  |  |  |  |  | < 0.04 |  |  | 
4 | CCn1c(Cc2ccc(OC)cc2Cl)cn(Cc2nc3nc(Cl)ccc3[nH]2)c1=O [Compound 2093, 1-({5-chloro-1H-imidazo[4,5-b]pyridin-2-yl}methyl)-4-[(2-chloro-4-methoxyphenyl)methyl]-3-ethyl-2,3-dihydro-1H-imidazol-2-one] |  |  |  | > 20 | > 20 | > 20 | > 20 | 7570 ± 2290 | 20400 | profoundly inhibited | < 0.04 | 0.038 | 0.033 | 
5 | CCn1c(Cc2ccc(OC)cc2Cl)cn(Cc2nc3nc(F)ccc3[nH]2)c1=O [Compound 2114, 4-[(2-chloro-4-methoxyphenyl)methyl]-3-ethyl-1-({5-fluoro-1H-imidazo[4,5-b]pyridin-2-yl}methyl)-2,3-dihydro-1H-imidazol-2-one] |  |  |  |  |  |  |  | 5450 ± 750 | 15000 |  | < 0.04 | 0.053 |  | 
6 | COc1cc(Cl)c(-c2cccc3nc(Cc4nc5nc(Cl)ccc5[nH]4)cn23)cc1OC [Compound 2144, 2-({5-chloro-1H-imidazo[4,5-b]pyridin-2-yl}methyl)-5-(2-chloro-4,5-dimethoxyphenyl)imidazo[1,2-a]pyridine] |  |  |  | > 20 | > 20 | > 20 | > 20 | ~9000 | 63200 | profoundly inhibited | 0.0409 | > 2 |  | 8950 ± 1380
7 | CC(=O)NC[C@H]1CN(c2ccc(N3CCOCC3)c(F)c2)C(=O)O1 [LNZ, linezolid] |  |  |  |  |  |  |  | 26500 ± 15200 | 94400 |  |  |  |  | 
